{"source": "patent US11510928B2", "about": "“Use of mirtazapine in the treatment of inflammatory disorders, autoimmune disease and PBC” (UTI Limited Partnership, priority 2017, dated 2022)", "key": {"[1]": {"tested_on": "hepatic CXCL10/IP-10, CXCL9/MIG, ICAM-1 and VCAM-1 expression", "assay": "Immunohistochemistry of liver sections after mirtazapine treatment", "format": "in vivo, mouse", "procedure": "Male 8-10 week old C57BL/6 mice (Jackson Labs, Bar Harbor, Me.) were used. All procedures were approved by the University of Calgary Animal Care Committee (protocol numbers AC14-0129 and AC14-0128) and were performed in accordance with the guidelines of the Canadian Council on Animal Care. To delineate the impact of mirtazapine treatment upon liver immune cell numbers and phenotype, and upon cytokine/chemokine networks within the liver, mice were treated with mirtazapine 1-20 mg/kg intraperitoneally^13-15. Mirtazapine was suspended in 1% aqueous solution of Tween 80, whereas the control group received 1% aqueous solution of Tween 80. Blood and liver samples were collected 5 hours post-mirtazapine treatment (or 16 hours post-Con A treatment). The detailed experimental protocols, lists of antibodies and reagents used, flow cytometry gating, and immune cell phenotyping strategies, are described herein. Hepatic CXCL10/IP-10, CXCL9/MIG, ICAM-1 and VCAM-1 expression were determined using immunohistochemistry, as previously described. Briefly, following initial deparaffinization and rehydration of tissue sections, antigen retrieval was performed in lx Citrate buffer, PH 6.0 (Abcam) for IP-10/CXCL9 and MIG/CXCL9, or in 1X EDTA buffer pH 8.0 for ICAM1 and VCAM-1. In all cases slides were incubated in antigen retrieval buffer at 95-100° C. for 20 minutes. […] This was followed by incubation with biotinylated rabbit anti-goat, goat-anti rat or goat anti-rabbit secondary antibodies (at 1:150) for 1 hour at room temperature (Vector Labs). Negative staining controls were performed by omission of primary antibody, or by omission of both primary and secondary antibodies. […] This was followed by incubation with Vectastain Elite ABC kit (Vector Laboratories) for 30 min at room temperature. Color was developed with Nova Red Chromogen (ImmPACT NovaRED Peroxidase Substrate, Vector Lab, Burlingame, Calif.), after which sections were counterstained with hematoxylin (EMD Millipore). Mounted slides were converted to virtual slides with a BX61 VS virtual microscopy system equipped with an XC10 camera and VS ASW software (Olympus) (original magnification ×400). For ICAM-1, VCAM1, CXCL9/Mig, and CXCL10/IP10 expression, all scanned virtual slides of the sections were examined in a blinded fashion, and expression patterns evaluated and described."}, "hepatic B cells": {"tested_on": "hepatic B cells", "assay": "Hepatic B cell characterization by flow cytometry, with liver/plasma cytokine and chemokine levels (Example 6)", "format": "in vivo, mouse", "procedure": "(§1) Male C57BL/6 mice (age 8-10 wks) were treated with mirt (20 mg/kg ip) or vehicle and livers removed 3-5 hrs later for B cell isolation and characterization by flow cytometry (FACS). Similarly peripheral blood and splenic B cells numbers were determined by FACS. Liver cytokine and chemokine levels were measured by Luminex®."}, "[2]": {"tested_on": "peripheral blood and splenic B cells", "assay": "Peripheral blood and splenic B cells by flow cytometry (Example 6)", "format": "in vivo, mouse", "conditions": "20 mg/kg ip, 5 hrs post-treatment", "procedure": "as §1"}, "[3]": {"tested_on": "patients in the UK THIN database", "assay": "Retrospective THIN cohort study: incidence of autoimmune diseases with mirtazapine exposure (Example 7)", "format": "in vivo, human", "conditions": "exposed vs matched (2:1) non-exposed cohort", "text": "Patients who were prescribed mirtazapine. 90 day ([…]) identified and compared to a matched patient cohort (2:1) not exposed to mirtazapine (n=372,822). Out models were adjusted for depression, use of other antidepressants, comorbidity status, smoking and alcohol consumption."}}}
{"smiles": "CN1CCN2c3ncccc3Cc3ccccc3C2C1", "note": "(stereo not drawn) [Mirtazapine]", "values": [{"measurement": "Hepatic CXCL10 expression (IHC)", "setting": "[1]; hepatocytes and sinusoidal endothelium, vs vehicle", "value": "strikingly increased"}, {"measurement": "Hepatic ICAM-1 expression (IHC)", "setting": "[1]; normal liver, vs vehicle", "value": "did not notably alter ICAM-1 expression"}, {"measurement": "Hepatic VCAM-1 expression (IHC)", "setting": "[1]; normal liver, vs vehicle", "value": "enhanced VCAM-1 staining intensity in sinusoidal endothelium and a marked increase in VCAM-1 expression intensity in sinusoidal immune cells"}, {"measurement": "Hepatic CXCL9 staining (IHC)", "setting": "[1]; vs vehicle treated mice", "value": "increased CXCL9 staining mainly within hepatocytes"}, {"measurement": "B cell CXCR3 expression levels (MFI)", "setting": "hepatic B cells; 20 mg/kg ip, 3-5 hrs", "value": "12180±315.9"}, {"measurement": "Elevation of hepatic CXCL10 levels (Luminex)", "setting": "hepatic B cells; 20 mg/kg ip, 3-5 hrs", "value": "~120", "unit": "fold"}, {"measurement": "Frequency of VLA-4+ hepatic B cells", "setting": "hepatic B cells; 20 mg/kg ip, 3-5 hrs", "value": "61.9+1.8%"}, {"measurement": "Hepatic CXCR3+ B cells", "setting": "hepatic B cells; 20 mg/kg ip, 3-5 hrs", "value": "47.5+1.4%"}, {"measurement": "Hepatic CXCR3hi B cells", "setting": "hepatic B cells; 20 mg/kg ip, 3-5 hrs", "value": "30.7±1.5", "unit": "%"}, {"measurement": "Hepatic CXCR3lo B cells", "setting": "hepatic B cells; 20 mg/kg ip, 3-5 hrs", "value": "did not significantly alter"}, {"measurement": "Increase in hepatic IFNγ levels (Luminex)", "setting": "hepatic B cells; 20 mg/kg ip, 3-5 hrs", "value": "~8", "unit": "fold"}, {"measurement": "VLA-4+CXCR3hi B cells", "setting": "hepatic B cells; 20 mg/kg ip, 3-5 hrs", "value": "16.1±1.7", "unit": "%"}, {"measurement": "Decrease in total hepatic B cell (IgM+) numbers", "setting": "hepatic B cells; 20 mg/kg ip, within 3-5 hours", "value": "~48", "unit": "%"}, {"measurement": "% B2 cells of IgM+ B cells in liver", "setting": "hepatic B cells; 5 hr post-treatment", "value": 29.6, "unit": "%+2.3%"}, {"measurement": "B1a B cells within the liver", "setting": "hepatic B cells; 5 hrs post-treatment", "value": 32.4, "unit": "%+1.5%"}, {"measurement": "Plasma levels of CXCL10 (ELISA)", "setting": "hepatic B cells; 5 hrs post-treatment", "value": "138.4 ± 24.4", "unit": "pg/mL"}, {"measurement": "Hepatic B1b B cells", "setting": "hepatic B cells; 5 hrs post-treatment, NS", "value": 23.5, "unit": "%+1.4%"}, {"measurement": "CD11b+Ly6Chi monocytes producing CXCL10", "setting": "hepatic B cells; flow cytometry, 3 hrs post-treatment", "value": "12.2%±3.8%"}, {"measurement": "Hepatic VCAM-1 expression (immunohistochemistry)", "setting": "hepatic B cells; post-mirt", "value": "clear upregulation"}, {"measurement": "Peripheral blood B cells (as % of total CD45+ leukocytes)", "setting": "[2]", "value": "highly significant drop"}, {"measurement": "Splenic B cell numbers", "setting": "[2]", "value": "paralleled by similar changes"}, {"measurement": "Adjusted Incidence Rate Ratio (adjusted IRR), Multiple Sclerosis", "setting": "[3]", "value": 0.80}, {"measurement": "Adjusted Incidence Rate Ratio (adjusted IRR), Psoriasis", "setting": "[3]", "value": 0.93}, {"measurement": "Adjusted Incidence Rate Ratio (adjusted IRR), Rheumatoid Arthritis", "setting": "[3]", "value": 0.55}]}
